“And” between values parts separate entries of the source, which are not always exact repeats. Equal values may be shown once. “Also recorded” adds a separate entry of the source. Read-outs that look alike come from different tables or passages of the source.
Assays:
[1] = system: human neural stem cells (hNSCs); assay: neuronal differentiation of cultured human neural stem cells (TUJ-1 staining), agents alone and in combination; settings: for EC50: % of neuronal positive control, basal media subtracted; for effect on differentiation of hNSCs along a neuronal lineage, agent alone: dose-response, normalized to neuronal positive control;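 for all read-outs here: cells kept in mitogen-free test media, with growth-factor-free basal medium as the negative control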
Experimental: The presence of synergy was determined by use of a combination index (CI). […] The CI is a quantitative measure of the nature of drug interactions, comparing the EC50's of two compounds, when each is assayed alone, to the EC50 of each compound when assayed in combination. The combination index (CI) is equal to the following formula:
where C1 and C2 are the concentrations of a first and a second compound, respectively, resulting in 50% activity in neuronal differentiation when assayed in combination; and IC1 and IC2 are the concentrations of each compound resulting in 50% activity when assayed independently.

Male Fischer F344 rats = assay: novelty suppressed feeding antidepressant/anxiolytic assay; assay type: in vivo, rat; settings: oral gavage once daily for 21 days, compounds given two hours prior to testing, 5.0 mg/kg each
Experimental: Male Fischer F344 rats were administered test compound(s)+vehicle or vehicle only (negative control) by oral gavage once daily for 21 days and evaluated for antidepressant/anxiolytic activity in the novelty suppressed feeding assay as follows. Twenty-four hours prior to behavioral testing, all food was removed from the home cage. At the time of testing a single pellet was placed in the center of a novel arena. Animals were placed in the corner of the arena and latency to eat the pellet was recorded. Compounds were administered two hours prior to testing. A decreased latency to eat the food pellet is indicative of both neurogenesis and antidepressant activity.

human mGlu3 receptors = human mGlu3 receptors (Homo sapiens, UniProt Q14832); settings: in vitro; e.g., below about 10 nM, or below about 5 nM; cited from earlier work
Chain of human mGlu3 receptors (Q14832 23-879): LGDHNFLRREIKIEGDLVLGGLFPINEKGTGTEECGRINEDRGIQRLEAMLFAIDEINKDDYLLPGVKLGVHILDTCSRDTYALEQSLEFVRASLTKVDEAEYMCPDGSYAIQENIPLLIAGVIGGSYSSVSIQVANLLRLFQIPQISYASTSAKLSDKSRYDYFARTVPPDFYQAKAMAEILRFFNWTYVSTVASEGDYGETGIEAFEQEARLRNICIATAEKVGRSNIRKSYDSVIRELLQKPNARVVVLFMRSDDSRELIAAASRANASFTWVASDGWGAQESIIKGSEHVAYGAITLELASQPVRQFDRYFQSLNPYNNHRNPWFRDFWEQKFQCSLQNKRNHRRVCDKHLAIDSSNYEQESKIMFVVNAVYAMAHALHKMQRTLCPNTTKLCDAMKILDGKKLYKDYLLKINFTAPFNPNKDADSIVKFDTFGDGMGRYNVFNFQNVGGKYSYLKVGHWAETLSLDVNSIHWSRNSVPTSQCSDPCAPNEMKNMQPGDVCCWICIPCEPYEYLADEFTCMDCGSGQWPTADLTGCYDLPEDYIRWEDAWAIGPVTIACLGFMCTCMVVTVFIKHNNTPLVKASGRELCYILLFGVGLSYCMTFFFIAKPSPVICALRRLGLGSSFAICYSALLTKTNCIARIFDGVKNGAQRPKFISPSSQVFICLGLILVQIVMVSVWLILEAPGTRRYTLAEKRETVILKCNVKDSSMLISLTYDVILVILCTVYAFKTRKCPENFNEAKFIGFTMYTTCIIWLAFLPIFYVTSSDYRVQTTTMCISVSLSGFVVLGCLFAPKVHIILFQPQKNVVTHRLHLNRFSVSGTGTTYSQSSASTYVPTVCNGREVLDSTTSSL

human mGlu2 receptors = human mGlu2 receptors (Homo sapiens, UniProt Q14416); settings: in vitro; e.g., below about 10 nM, or below about 5 nM; cited from earlier work
Chain of human mGlu2 receptors (Q14416 19-872): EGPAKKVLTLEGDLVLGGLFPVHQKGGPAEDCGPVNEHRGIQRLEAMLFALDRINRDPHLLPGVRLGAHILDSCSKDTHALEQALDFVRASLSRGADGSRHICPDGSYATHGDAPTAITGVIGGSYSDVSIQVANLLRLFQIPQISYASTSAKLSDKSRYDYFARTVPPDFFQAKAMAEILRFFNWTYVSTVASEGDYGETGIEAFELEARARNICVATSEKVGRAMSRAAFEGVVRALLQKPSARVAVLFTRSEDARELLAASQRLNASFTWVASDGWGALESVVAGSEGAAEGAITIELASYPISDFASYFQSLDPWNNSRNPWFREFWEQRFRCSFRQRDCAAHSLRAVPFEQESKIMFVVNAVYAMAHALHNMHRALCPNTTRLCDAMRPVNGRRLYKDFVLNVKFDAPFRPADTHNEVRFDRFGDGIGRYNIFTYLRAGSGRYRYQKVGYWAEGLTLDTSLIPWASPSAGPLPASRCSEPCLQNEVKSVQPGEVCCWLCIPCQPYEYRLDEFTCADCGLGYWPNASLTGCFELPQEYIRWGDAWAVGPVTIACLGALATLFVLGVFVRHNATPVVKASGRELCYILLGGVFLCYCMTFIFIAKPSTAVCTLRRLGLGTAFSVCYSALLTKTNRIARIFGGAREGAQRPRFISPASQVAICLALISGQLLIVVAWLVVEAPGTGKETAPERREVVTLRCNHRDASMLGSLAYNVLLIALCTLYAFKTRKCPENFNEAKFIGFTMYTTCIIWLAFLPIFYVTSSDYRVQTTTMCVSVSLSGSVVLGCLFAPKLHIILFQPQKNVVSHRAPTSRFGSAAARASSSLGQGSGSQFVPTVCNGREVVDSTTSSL

Male Fisher F344 rats = assay: chronic dosing of rats: proliferation and differentiation of neural cells in the dentate gyrus (BrdU); assay type: in vivo, rat; settings: for increase in differentiation of neural progenitor cells into mature neurons, subgranular zone of dentate gyrus: chronic treatment
Experimental: Male Fisher F344 rats were injected with varying doses of baclofen as a test compound with vehicle, or vehicle only (negative control), once daily for twenty eight days. Rats were injected once daily with 100 mg/kg BrdU on days 9-14 of test compound administrations. Rats were then anesthetized and killed by transcardial perfusion of 4% paraformaldehyde at day 28. Brains were rapidly removed and stored in 4% paraformaldehyde for 24 hours and then equilibrated in phosphate buffered 30% sucrose. Free floating 40 micron sections were collected on a freezing microtome and stored in cryoprotectant. Antibodies against BrdU and cell types of interest (e.g., neurons, astrocytes, oligodendrocytes, endothelial cells) were used for detection of cell differentiation.
Briefly, tissues were washed (0.01 M PBS), endogenous peroxidase blocked with 1% hydrogen peroxide, and incubated in PBS (0.01 M, pH 7.4, 10% normal goat serum, 0.5% Triton X-100) for 2 hours at room temperature. Tissues were then incubated with primary antibody at 4° C. overnight. The tissues were rinsed in PBS followed by incubation with biotinylated secondary antibody (1 hour at room temperature). Tissues were further washed with PBS and incubated in avidin-biotin complex kit solution at room temperature for 1 hour. Various fluorophores linked to streptavidin were used for visualization. Tissues were washed with PBS, briefly rinsed in dH2O, serially dehydrated and coverslipped. Cell counting and unbiased stereology was limited to the hippocampal granule cell layer proper and one 50 um border along the hilar margin that includes the neurogenic subgranular zone. The proportion of BrdU cells displaying a lineage-specific phenotype was determined by scoring the co-localization of cell phenotype markers with BrdU using confocal microscopy. Split panel and z-axis analysis were used for all counting. All counts were performed using multi-channel configuration with a 40× objective and electronic zoom of 2. When possible, 100 or more BrdU-positive cells were scored for each marker per animal. Each cell was manually examined in first full “z”-dimension and only those cells for which the nucleus is unambiguously associated with the lineage-specific marker were scored as positive.
The total number of BrdU-labeled cells per hippocampal granule cell layer and subgranule zone were determined using diaminobenzidine stained tissues. Over-estimation was corrected using the Abercrombie method for nuclei with empirically determined average diameter of 13 um within a 40 um section.

[2] = system: human neural stem cells (hNSCs); assay: growth of individual neurospheres comprising hNSCs (proliferation); assay type: cell-based; settings: 1 μM, 10 μM and 30 μM; percent increase over basal neurosphere size as a function of time
Experimental: Results are shown as a percent increase over the basal neurosphere size. Negative control (open circles) is basal media without compound, and positive control (open squares) is basal media with a known proliferative agent.
FIG. 7 is a time-response curve showing the effect of 1 μM (solid diamonds), 10 μM (solid squares), and 30 μM (solid circles) concentrations of baclofen on the growth of individual neurospheres comprising human neural stem cells (hNSCs) as a function of time. Results are shown as a percent increase over the basal neurosphere size. Negative control (open circle) is basal media without compound, and positive control (open square) is basal media with a known proliferative agent.

[3] = system: human neural stem cells (hNSCs); assay: toxicity on human neural stem cells (cell count, nuclear dye Hoechst 33342); assay type: cell-based; settings: concentrations up to 100 μM; toxic doses fall below 80% of basal cell count
Experimental: Data is shown as a percent of the basal media cell count. Toxic doses typically fall below 80% of the basal cell count.
Experiments were carried out as described in Example 1, except that the positive control contained basal media only, and cells were stained with nuclear dye (Hoechst 33342).

[4] = system: human neural stem cells (hNSCs); assay: astrocyte differentiation of cultured human neural stem cells (GFAP staining); assay type: cell-based; settings: dose-response, normalized to astrocyte positive control
Experimental: Mitogen-free test media with a positive control for neuronal differentiation, mitogen-free test media with 50 ng/ml BMP-2, 50 ng/ml LIF and 0.5% FBS served as a positive control for astrocyte differentiation, and basal media without growth factors served as a negative control.

mGluR2 = mGluR2 (Homo sapiens, UniProt Q14416); settings: cited from earlier work
Chain of mGluR2 (Q14416 19-872): as above

mGluR3 = mGluR3 (Homo sapiens, UniProt Q14832); settings: cited from earlier work
Chain of mGluR3 (Q14832 23-879): as the sequence (Q14832 23-879) above

[5] = cited from earlier work
[6] = in vivo; cited from earlier work
[7] = Homo sapiens, Neural stem cell, read-out: EC50 for neuronal differentiation, agent alone, compound run individually
[8] = read-out: EC50 for neuronal differentiation, agent alone, compound run individually

In the case of `CCCc1nc2c(C)cc(-c3nc4ccccc4n3C)cc2n1Cc1ccc(-c2ccccc2C(=O)O)cc1` [telmisartan], the EC50 [1, 7] is reported as 0.02 µM.

For `O=C(O)[C@@H]1C[C@@H](C2CCCCC2)CN1C(=O)CP(=O)(O)CCCCc1ccccc1` [fosinoprilat], the EC50 [1, 7] was 3.3 µM.

In the case of `CC(C)C[C@H](CN)CC(=O)O` [pregabalin, (S)-(+)-3-isobutylgaba], the EC50 [1, 8] is reported as 0.57 µM and 3.39 µM and 4.13 µM and the “antidepressant and anxiolytic effects in novelty suppressed feeding” value (Male Fischer F344 rats) is reported as “no effects”.

In the case of `N[C@@]1(C(=O)O)CO[C@H]2[C@H](C(=O)O)[C@H]21` [LY379268, (−)-2-Oxa-4-aminobicyclohexane-4,6-dicarboxylic acid], the EC50 (human mGlu3 receptors) is given as “low nanomolar range” and the EC50 (human mGlu2 receptors) is given as “low nanomolar range”.

With `C[C@H](CS)C(=O)N1CCC[C@H]1C(=O)O` [captopril] the EC50 [1, 7] was 3.8 µM.

`CCCCN(CC)c1nc(C)nc2c1c(C)c(C)n2-c1c(C)cc(C)cc1C` [antalarmin] showed an EC50 [1, 7] of 2.33 µM.

For `C[C@H](N[C@@H](CCc1ccccc1)C(=O)O)C(=O)N1Cc2ccccc2C[C@H]1C(=O)O` [quinaprilat, Quinaprilat], the EC50 [1, 7] was 2.4 µM.

`CCOC(=O)[C@H](CCc1ccccc1)N[C@H]1CCc2ccccc2N(CC(=O)O)C1=O` [benazepril] showed an EC50 [1, 7] of 5.5 µM.

With `NCC(CC(=O)O)c1ccc(Cl)cc1` (stereo not drawn) [baclofen, Baclofen] the EC50 [1, 7] was 3.84 µM, the “effect on differentiation of hNSCs along a neuronal lineage, agent alone” value (“effect on differentiation … agent alone” for short) [1] was “significant enhancement” and the “effect on differentiation … agent alone” value ([1]; listed as Baclofen) was “promoted neuronal differentiation”. The EC50 [1, 8] was 3.2 µM, the “increase in differentiation of neural progenitor cells into mature neurons, subgranular zone of dentate gyrus” value (Male Fisher F344 rats; 0.75 mg/kg/day) was 8% and the “increase in differentiation of neural progenitor cells into mature neurons, subgranular zone of dentate gyrus” value (Male Fisher F344 rats; 1.50 mg/kg/day) was 5%. The “neural cell proliferation within the dentate gyrus (mean number of BrdU-positive cells)” value (Male Fisher F344 rats; injection once daily for twenty eight days, 0.75 and 1.50 mg/kg) was “dose-related increase in proliferation”, the “neurogenic effects in vivo” value (Male Fisher F344 rats; once daily for twenty eight days) was “produces neurogenic effects with a rapid onset of action” and the “effect on neurosphere growth / cell proliferation” value [2] was “positive effect on cell proliferation”. The “toxicity on hNSCs (cell count as percent of basal media cell count)” value [3] was “Neither GABA nor baclofen exhibited toxicity; also recorded: did not exhibit significant toxicity”, the “effect on differentiation of hNSCs along an astrocyte lineage” value [4] was “did not exhibit a significant effect on astrocyte differentiation” and the “effect on differentiation of hNSCs along an astrocyte lineage” value ([4]; listed as Baclofen) was “no detectable effect”.

In the case of `NCCCC(=O)O` [GABA], the “effect on differentiation … agent alone” value [1] is reported as “promoted neuronal differentiation; also recorded: significant enhancement”, the “effect on neurosphere growth / cell proliferation” value [2] is reported as “positive effect on cell proliferation” and the “toxicity on hNSCs (cell count as percent of basal media cell count)” value [3] is reported as “Neither GABA nor baclofen exhibited toxicity; also recorded: did not exhibit significant toxicity”. For the same compound, the “effect on differentiation of hNSCs along an astrocyte lineage” value [4] was “no detectable effect; also recorded: did not exhibit a significant effect on astrocyte differentiation”.

For `NC1(C(=O)O)CCc2cc(P(=O)(O)O)ccc21` (racemic) [APICA, (RS)-1-amino-5-phosphonoindan-1-carboxylic acid], the IC50 (mGluR2) is given as roughly 30 µM and the IC50 (mGluR3) is given as roughly 30 µM.

`NC(=O)C[S+]([O-])C(c1ccccc1)c1ccccc1` (stereo not drawn) [modafinil] gave an EC50 [1, 7] of 3.44 µM.

In the case of `O=C1CC[C@@]2(O)[C@H]3Cc4ccc(O)c5c4[C@@]2(CCN3CC2CC2)[C@H]1O5` [naltrexone], the EC50 [1, 7] is reported as 7.3 µM.

`CCC[C@H](N[C@@H](C)C(=O)N1[C@H](C(=O)O)C[C@@H]2CCCC[C@@H]21)C(=O)O` [perindoprilat, Perindoprilat] gave an EC50 [1, 7] of 3.5 µM.

With `CCCCc1nc(Cl)c(CO)n1Cc1ccc(-c2ccccc2-c2nn[nH]n2)cc1` [losartan] the EC50 [1, 7] was 0.31 µM.

For `COCCCOc1cc(C[C@@H](C[C@H](N)[C@@H](O)C[C@H](C(=O)NCC(C)(C)C(N)=O)C(C)C)C(C)C)ccc1OC` [aliskiren, (2S,4S,5S,7S)-5-amino-N-(2-carbamoyl-2-methyl-propyl)-4-hydroxy-7-{[4-methoxy-3-(3-methoxypropoxy)phenyl]methyl}-8-methyl-2-propan-2-yl-nonanamide], the water solubility [5] is given as “good water solubility”, the plasma half-life [6] is given as “≈ 24 hours” and the EC50 [1, 7] is given as 2.79 µM.

With `NC(=O)c1ncn([C@@H]2O[C@H](CO)[C@@H](O)[C@H]2O)n1` [ribaviran, ribavirin] the EC50 [1, 7] was 6.1 µM.

In the case of `NCC1(CC(=O)O)CCCCC1` [gabapentin, Gabapentin], the EC50 [1, 8] is reported as 0.68 µM and 4.32 µM and 2.66 µM.

`CCCCc1ncc(/C=C(\Cc2cccs2)C(=O)O)n1Cc1ccc(C(=O)O)cc1` [eprosartan] showed an EC50 [1, 7] of 0.03 µM.

Compound `NCCCC[C@H](N[C@@H](CCc1ccccc1)C(=O)O)C(=O)N1CCC[C@H]1C(=O)O` [lisinopril] has an EC50 [1, 7] of 3.8 µM.

Compound `CC(C)c1c(C(=O)Nc2ccccc2)c(-c2ccccc2)c(-c2ccc(F)cc2)n1CC[C@@H](O)C[C@@H](O)CC(=O)O` [atorvastatin] has an EC50 [1, 7] of 0.003 µM.

`Clc1ccc2c(c1)N=C(N1CCNCC1)c1ccccc1N2` [N-desmethylclozapine] gave an EC50 [1, 8] greater than 100 µM.

For `CCOc1nc2cccc(C(=O)O)c2n1Cc1ccc(-c2ccccc2-c2nnn[nH]2)cc1` [candesartan], the EC50 [1, 7] was 1.17 µM, the EC50 [1, 8] was 1.33 µM and the “antidepressant and anxiolytic effects in novelty suppressed feeding” value (Male Fischer F344 rats) was “no effects”.

In the case of `COC(=O)[C@@H]1[C@H]2C[C@H]3c4[nH]c5ccccc5c4CCN3C[C@@H]2CC[C@@H]1O` [yohimbine], the EC50 [1, 7] is reported as 1.96 µM.
